Drawing on patent US11702419B2, “Heterocyclic compound and use thereof” (Takeda Pharmaceutical Company Limited, priority 2018, dated 2023), this text covers inhibition for 13 compounds.

Molecules are shown by their SMILES.

The target of the test is T1, NMDA receptor composed of four subunits consisting of two sets of heterodimers of NR1 and NR2B (human GRIN1 and GRIN2B-expressing HEK293 cells) (Homo sapiens, UniProt Q13224).
T1 construct: host or cells: HEK293 (tetracycline-inducible expression)
T1 sequence (Q13224 27-1484, other chains not shown): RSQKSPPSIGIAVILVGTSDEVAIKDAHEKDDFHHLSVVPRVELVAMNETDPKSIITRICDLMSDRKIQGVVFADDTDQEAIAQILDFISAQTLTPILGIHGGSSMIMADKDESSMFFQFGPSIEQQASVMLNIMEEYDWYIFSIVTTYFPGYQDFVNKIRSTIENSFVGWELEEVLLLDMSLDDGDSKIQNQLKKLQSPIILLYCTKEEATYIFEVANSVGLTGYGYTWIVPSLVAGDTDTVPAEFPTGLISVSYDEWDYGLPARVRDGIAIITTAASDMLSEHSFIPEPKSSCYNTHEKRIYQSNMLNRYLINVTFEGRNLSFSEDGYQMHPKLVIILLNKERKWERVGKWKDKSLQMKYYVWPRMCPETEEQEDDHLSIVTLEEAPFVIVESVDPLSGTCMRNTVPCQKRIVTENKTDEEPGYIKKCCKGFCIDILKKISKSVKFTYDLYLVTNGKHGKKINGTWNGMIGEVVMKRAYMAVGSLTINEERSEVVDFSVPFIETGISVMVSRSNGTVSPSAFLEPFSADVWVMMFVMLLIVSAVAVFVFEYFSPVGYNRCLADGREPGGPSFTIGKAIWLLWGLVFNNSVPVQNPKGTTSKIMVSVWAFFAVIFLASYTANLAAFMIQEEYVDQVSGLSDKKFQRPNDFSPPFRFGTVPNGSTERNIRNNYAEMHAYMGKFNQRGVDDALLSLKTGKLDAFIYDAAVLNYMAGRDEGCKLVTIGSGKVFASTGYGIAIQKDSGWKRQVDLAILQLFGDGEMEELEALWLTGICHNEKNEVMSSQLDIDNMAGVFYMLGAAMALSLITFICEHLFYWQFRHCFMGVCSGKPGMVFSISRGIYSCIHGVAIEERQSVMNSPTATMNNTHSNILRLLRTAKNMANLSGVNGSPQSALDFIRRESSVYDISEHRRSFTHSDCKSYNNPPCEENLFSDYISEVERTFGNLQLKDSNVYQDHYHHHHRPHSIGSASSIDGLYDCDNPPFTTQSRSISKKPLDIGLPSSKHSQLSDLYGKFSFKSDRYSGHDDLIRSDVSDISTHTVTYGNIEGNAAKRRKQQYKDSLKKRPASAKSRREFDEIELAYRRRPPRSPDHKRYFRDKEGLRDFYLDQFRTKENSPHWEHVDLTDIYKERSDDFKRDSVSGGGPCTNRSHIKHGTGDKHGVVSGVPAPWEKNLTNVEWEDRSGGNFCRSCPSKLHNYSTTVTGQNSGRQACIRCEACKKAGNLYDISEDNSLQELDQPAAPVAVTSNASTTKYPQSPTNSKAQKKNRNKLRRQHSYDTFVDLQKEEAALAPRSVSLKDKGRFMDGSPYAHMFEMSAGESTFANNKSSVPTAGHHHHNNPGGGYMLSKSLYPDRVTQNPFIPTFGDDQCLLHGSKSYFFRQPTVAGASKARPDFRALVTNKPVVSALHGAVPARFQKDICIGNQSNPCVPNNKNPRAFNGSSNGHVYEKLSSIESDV
Nature of the test: NR2B Ca2+ influx assay. To be noted: 10 μM compound, glutamic acid/glycine-induced Ca2+ influx, FLIPR, read-out: inhibitory rate (10 μM compound concentration). The class given is cell-based. The method, then: In order to confirm an “antagonistic action on an NMDA receptor containing the NR2B subunit” which the compound of the present invention has, inhibitory effect on the NMDA receptor activation was evaluated using “NMDA receptor composed of four subunits consisting of two sets of heterodimers of NR1 and NR2B”-expressing human fetal renal cells, specifically human glutamate ionotropic receptor NMDA type subunit 1 (GRIN1) and human glutamate ionotropic receptor NMDA type subunit 2B (GRIN2B)-expressing HEK293 cells.
As an index of the NMDA receptor activation, intracellular calcium ion (Ca^2+) influx caused by bonding of glycine and glutamate to NR1 and NR2B respectively was used. HEK293 cells were purchased from ChanTest. The cells were cultured in a DMEM/F-12 (COSMO BIO, 10-092-CM) medium containing 10% FBS (fetal bovine serum, AusGene), 100 units/mL penicillin, 100 μg/mL streptomycin, 500 μg/mL neomycin, 100 μg/mL Zeocin and 5 μg/mL Blasticidin at 37° C., 5% CO2. The cells were detached from flask with trypsin the day before the assay, suspended in a seeding medium (DMEM (Invitrogen, 31053) containing 10% FBS, 100 units/mL penicillin and 100 μg/mL streptomycin) at 8×10^5 cells/mL, seeded by 25 μL per well in a 384-well plate (Falcon, 356663) at 20000 cells/well, and cultured overnight in an incubator. On the day of the assay, tetracycline (Wako Pure Chemical Industries, 209-16561) was diluted with the seeding medium at 2 μg/mL, and the dilution was added at 25 μL/well to the plate seeded with the cells, and the cells were cultured for 2 hr in an incubator. Thereafter, the medium was removed, and the cells were washed with 50 μL/well of assay buffer (137 mM NaCl, 4 mM KCl, 1.8 mM CaCl2, 10 mM HEPES (pH 7.2), 10 mM Glucose, and 0.1% BSA). Then, a loading buffer (assay buffer containing 2.5 μM Fluo-4AM, 2 mM Amaranth and 1 mM Tartrazine) was added thereto at 25 μL/well, and loading was performed in the incubator for 30 min, and then at room temperature for 15 min. The test compound was diluted with the above-mentioned assay buffer so as to adjust the concentration to 30 μM, the obtained solution (25 μL) was added thereto (the final concentration 10 μM), and the cells were stood for 15 min at room temperature. Using FLIPR (Molecular Devices), 25 μL of an assay buffer containing 30 μM glutamic acid and 30 μM glycine was added thereto, and the fluorescence signal was measured every 3 seconds for 5 min. The relative activity value (inhibitory rate) was calculated when the cumulative total value of the fluorescence value of a well added with a buffer free of glutamic acid and glycine, relative to the cumulative total value of the fluorescence value of each well are regarded as 100% inhibition. The obtained value was evaluated as an inhibitory activity.
On to `O=C(NCc1nnn2ccccc12)c1ccc(C(F)(F)F)c(F)c1` [Example 68, 3-fluoro-N-([1,2,3]triazolo[1,5-a]pyridin-3-ylmethyl)-4-(trifluoromethyl)benzamide], for which the inhibition at 10 µM is 83%. As for `O=C(NCc1nnn2ccccc12)c1ccc(OC(F)(F)F)cc1` [Example 69, N-([1,2,3]triazolo[1,5-a]pyridin-3-ylmethyl)-4-(trifluoromethoxy)benzamide], the figure is 92%; as for `Cc1nn2ncc(CNC(=O)c3cnc(OC(F)F)c(F)c3)c2n1C` [Example 70, 6-(difluoromethoxy)-N-[(1,2-dimethyl-1H-pyrazolo[1,5-b][1,2,4]triazol-7-yl)methyl]-5-fluoropyridine-3-carboxamide], 100%; as for `Cc1nn2ncc(CNC(=O)c3ccc(OC(F)(F)F)c(F)c3)c2n1C` [Example 71, N-[(1,2-dimethyl-1H-pyrazolo[1,5-b][1,2,4]triazol-7-yl)methyl]-3-fluoro-4-(trifluoromethoxy)benzamide], 97%. As for `Cc1nn2ncc(CNC(=O)c3cnc(OC(F)F)c(Cl)c3)c2n1C` [Example 72, 5-chloro-6-(difluoromethoxy)-N-[(1,2-dimethyl-1H-pyrazolo[1,5-b][1,2,4]triazol-7-yl)methyl]pyridine-3-carboxamide], the figure is 95%; as for `Cc1nn2ccn(C)c2c1CNC(=O)c1cnc(OC(F)F)c(F)c1` [Example 73, 6-(difluoromethoxy)-N-[(1,6-dimethyl-1H-imidazo[1,2-b]pyrazol-7-yl)methyl]-5-fluoropyridine-3-carboxamide], 93%; as for `Cc1nn2ncc(CNC(=O)c3cnc(OC(F)F)c(F)c3)c2n1C(F)F` [Example 74, 6-(difluoromethoxy)-N-{[1-(difluoromethyl)-2-methyl-1H-pyrazolo[1,5-b][1,2,4]triazol-7-yl]methyl}-5-fluoropyridine-3-carboxamide], 90%.

For the compound `Cc1nn2ncc(CNC(=O)c3cnc(OC(F)F)c(Cl)c3)c2n1C(F)F` [Example 75, 5-chloro-6-(difluoromethoxy)-N-{[1-(difluoromethyl)-2-methyl-1H-pyrazolo[1,5-b][1,2,4]triazol-7-yl]methyl}pyridine-3-carboxamide], the inhibition at 10 µM turned out to be 91%.

`O=C(NCc1cnn2ccn(C(F)F)c12)c1cnc(OC(F)F)c(F)c1` [Example 76, 6-(difluoromethoxy)-N-{[1-(difluoromethyl)-1H-imidazo[1,2-b]pyrazol-7-yl]methyl}-5-fluoropyridine-3-carboxamide]: the inhibition at 10 µM turned out to be 87%. As for `Cc1nn2ncc(CNC(=O)c3cnc(OC(F)F)c(Cl)c3)c2n1CC(F)F` [Example 77, 5-chloro-N-{[1-(2,2-difluoroethyl)-2-methyl-1H-pyrazolo[1,5-b][1,2,4]triazol-7-yl]methyl}-6-(difluoromethoxy)pyridine-3-carboxamide], the figure is 54%. With `Cc1nn2ncc(CNC(=O)c3ccc(OC(F)(F)F)c(F)c3)c2n1CC(F)F` [Example 78, N-{[1-(2,2-difluoroethyl)-2-methyl-1H-pyrazolo[1,5-b][1,2,4]triazol-7-yl]methyl}-3-fluoro-4-(trifluoromethoxy)benzamide], the inhibition at 10 µM amounted to 81%. For the compound `O=C(NCc1cnn2ccn(CC(F)F)c12)c1cnc(OC(F)F)c(F)c1` [Example 79, N-{[1-(2,2-difluoroethyl)-1H-imidazo[1,2-b]pyrazol-7-yl]methyl}-6-(difluoromethoxy)-5-fluoropyridine-3-carboxamide], the inhibition at 10 µM was determined as 87%.

Regarding `O=C(NCc1cnn2ccn(CC(F)F)c12)c1cnc(OC(F)F)c(Cl)c1` [Example 80, 5-chloro-N-[{1-(2,2-difluoroethyl)-1H-imidazo[1,2-b]pyrazol-7-yl]methyl}-6-(difluoromethoxy)pyridine-3-carboxamide], the inhibition at 10 µM was found to be 91%.
